Reference: patent US20100028366A1, “SYNERGISTIC EFFECT BETWEEN A […] AND ANOTHER OXIDATIVE INDUCING SYSTEM FOR TREATING TUMORS” (priority 2005, published 2010)
Peptide text beside a SMILES is read from it. * marks the point of attachment. Cbz = O=C(OCc1ccccc1)*; CH2F = FC*

Assays:
Assay type in all cases: cell-based, canine
[1] = test system: W&Wlis cells; experiment: Analysis of the type of death by flow cytometry (annexin V-FITC/propidium iodide); parameters: Necrosis / Apoptosis: unit not given here
Method: The annexin V-FITC and propidium iodide assay was performed in parallel by flow cytometry. The pattern of death of the system was analyzed when adding 5 mEU/ml of glucose oxidase and the combined therapy (5 mEU/ml of GO and 500 μg/ml of linamarin) at 48 hours, followed by the control of untreated cells and of the cells incubated with 500 μg/ml of linamarin at 96 hours. Furthermore, another group of cells was subjected to the same conditions except 10 mM of N-acetyl cysteine (NAC) were added. The cells treated with the combined therapy were subsequently studied at 48 hours in the absence and presence of 100 μM of Z-VAD-fmk, followed by the control of treatment of the cells with UV in the same conditions. Finally, the cells treated with the combined therapy were shown at 48 hours in the absence and presence of 300 μM of 1,5-isoquinolinediol (DIQ), observing that the pattern of death is not modified when PARP-1 is inhibited (FIG. 4).
10^5 W&Wlis cells were seeded in test tubes with a screw-on cap and flat side (Nunc). After 24 hours, different amounts of linamarin (50, 200 or 500 μg/ml) and glucose oxidase (5 mEU/ml) were added in the specified cases. In the appropriate assays, the medium was supplemented with N-acetyl cysteine (10 mM), 1,5-isoquinolinediol (300 μM) or Z-VAD-fmk (100 μM). […] They were centrifuged for 5 minutes at 1200 rpm and the cell precipitate was washed first with PBS and then with binding buffer (0.1 M Hepes/NaOH pH 7.4, 1.4 M NaCl and 25 mM CaCl2). The cells were again precipitated and resuspended in 100 μl of binding buffer supplemented with 5 μl of annexin V-FITC and 2.5 μg/ml of propidium iodide. The samples were incubated for 15 minutes in the dark. Data acquisition and analysis was carried out by means of a FACSCalibur flow cytometer (DB Biosciences) with the Cell Quest program.

[2] = test system: W&Wlis cells; experiment: as above; parameters: unit not given here; conditions: Table 5; Control cells; DIQ (300 μM); 32 hours
[3] = test system: W&Wlis cells; experiment: DNA content analysis by flow cytometry, labeling with propidium iodide; parameters: unit not given here; conditions: UV (24 hours), 12.5 J/m^2; Z-VAD-fmk 100 μM; UV Control = 66.14
[4] = 0 μg lin, Without GO, 96 hours, NAC (10 mM)
[5] = Table 5, Control cells, DIQ (300 μM), 48 hours
[6] = Table 4, 0 μg lin, Without GO, 72 hours, Z-VAD-fmk (100 μM)

In the case of `CC(=O)N[C@@H](CS)C(=O)O` [NAC, N-acetyl cysteine, reference compound], the Apoptosis [1, 4] is reported as 16.17 and the Necrosis [1, 4] is reported as 13.46.

For `Oc1cccc2c(O)nccc12` [DIQ, 1,5-isoquinolinediol, reference compound], the Necrosis [2] was 17.62, the Apoptosis ([1]; Table 5, Control cells, DIQ (300 μM), 32 hours) was 8.15 and the Apoptosis [1, 5] was 20.16. For the same compound, the Necrosis [1, 5] was 29.59.

With `COC(=O)C[C@H](NC(=O)[C@H](C)NC(=O)[C@@H](NC(=O)OCc1ccccc1)C(C)C)C(=O)CF` [Z-VAD-fmk, reference compound] (Cbz-Val-Ala-Asp(OMe)-CH2F) the “DNA content by flow cytometry, labeling with propidium iodide” value [3] was “Z-VAD-fmk = 2.71”, the Apoptosis [1, 6] was 2.66 and the Necrosis [1, 6] was 37.25. For the same compound, the “inhibition of UV radiation-induced apoptosis” value ([1]; Z-VAD-fmk (100 μM), UV 12.5 J/m^2, DNA content and annexin V-FITC/propidium iodide) was “complete inhibition”.
